For one data set, the system named is HEK293 cells. The arrangement: method as in Berthold et al., 2013; Bluhm et al., 2015. The settings on record: ref Berthold et al., 2013, Bluhm et al., 2015; cited from earlier work.
For data set [1], the system named is Primary rat cardiomyocytes. More on the design: method as in Berthold et al., 2013; Bluhm et al., 2015. The settings on record: ref Berthold et al., 2013, Bluhm et al., 2015; cited from earlier work.
Another data set relates to human erythrocytes. In words: Hemolysis assay. It is filed as cell-based. The settings on record: 0.1 g/L peptide, 1 h. On the procedure: Human EDTA blood (S-Monovette® with potassium-EDTA Sarstedt AG, Nümbrecht, Germany) was centrifuged (3 min, 300 × g, 4°C) and blood cells were washed three times using the 10-fold volume of cold PBS. The diluted blood cell suspension (2% v/v in PBS, 50 μL) was mixed with a peptide solution (1.2 or 0.2 g/L in PBS, 50 μL) or triton X-100 (1%, v/v in PBS; control) in 96-well plates (PP, V-bottom). After incubation under constant shaking (1 h, 37°C, 300 rpm, Eppendorf Thermomixer) the suspension was centrifuged (3 min, 4°C, 1000 × g) and the OD405 of the supernatant was measured in a 384-well plate (PS, flat bottom, Paradigm microplate reader, Molecular Devices, Sunnyvale, USA). The hemolytic grade (HG) was calculated as [(ODPeptide−ODPBS)/(ODTriton−ODPBS)] × 100%.

Another data set relates to HeLa cells. Description: Flow cytometry, cell uptake of Cf-labeled peptides. The settings on record: flow cytometry (abstract). It is filed as cell-based. On the procedure:
HeLa cells (50,000 for endocytosis inhibition and 70,000 for uptake kinetics) suspended in DMEM/F-12 medium (300 μL; see above) were seeded into 48-well plates (PS, sterile, flat bottom) and incubated (23 ± 1 h) using the conditions described above. Cells were washed twice with PBS (300 μL/well) and fresh medium was added (144 μL).
Peptide solutions (6 μL; 1 mmol/L in H2O) were added to achieve a concentration of 40 μmol/L at different time points. Cells were washed three times with PBS (300 μL/well), treated with trypsin (75 μL; 0.05% w/v trypsin, 5 min, 37°C), rinsed off the plate using cold PBS (600 μL/well), and trypsin was removed by two washing steps (400 × g, 4°C, 4 min, 600 μL PBS each). Cells were suspended in PBS (0.1 mL) containing eFluor660 (1000 × diluted in PBS) and incubated on ice in the dark. After 30 min, cells were washed with cold PBS twice, suspended in formaldehyde (100 μL; 2% w/v in PBS), incubated (15 min, RT), washed (200 μL PBS), stored in FACS buffer (200 μL; 3% FBS, 0.1% NaN3 in PBS) overnight, and analyzed on a FACSCalibur (Becton Dickinson, New Jersey, USA). Alternatively, cells were fixed directly without prior eFluor660 staining.
(A flow cytometer gives signals particle by particle.)

The nature of a further data set: in vitro. The data set is classed as cell-based. The note with it: human.

Where a SMILES comes first, the peptide text is derived from it. [ ]: non-standard residue; d: D form. The star is where a group is joined. Orn(α-tetramethylguanidino) = CN(C)C(=N[C@@H](CCCN)C(=O)*)N(C)C; Orn = NCCC[C@H](N)C(=O)O Some results are limits rather than exact numbers.

By viability is commonly meant a per cent measure of how many cells are alive, often set against a control. Lower therefore signals a greater loss of cells.

For `CC[C@H](C)[C@H](NC(=O)[C@H](Cc1ccc(O)cc1)NC(=O)[C@@H](NC(=O)[C@@H]1CCCN1C(=O)[C@H](CCCNC(=N)N)NC(=O)[C@H](CC(N)=O)NC(=O)[C@H](CC(N)=O)NC(=O)[C@H](CCCN)N=C(N(C)C)N(C)C)C(C)C)C(=O)N1CCC[C@H]1C(=O)N[C@@H](CCCNC(=N)N)C(=O)N1CCC[C@H]1C(=O)N[C@@H](CCCNC(=N)N)C(=O)N1CCC[C@H]1C(=O)N1CCC[C@H]1C(=O)N[C@@H](Cc1c[nH]cn1)C(=O)N1CCC[C@H]1C(=O)N[C@@H](CCCNC(=N)N)C(=O)N[C@@H](CC(C)C)C(=O)O` [Api137, gu-ONNRPVYIPRPRPPHPRL-OH, reference compound] ({Orn(α-tetramethylguanidino)}-NNRPVYIPRPRPPHPRL-OH), the “IC50 on cell viability” value (in the data set on HEK293 cells; in data set [1]) was above 600 µg/mL in each case.

In the data set on human erythrocytes, `CC(C)C[C@H](NC(=O)[C@H](CCCNC(=N)N)NC(=O)[C@@H]1CCCN1C(=O)[C@H](Cc1c[nH]cn1)NC(=O)[C@@H]1CCCN1C(=O)[C@@H]1CCCN1C(=O)[C@H](CCCNC(=N)N)NC(=O)[C@@H]1CCCN1C(=O)[C@H](CCCNC(=N)N)NC(=O)[C@@H]1CCCN1C(=O)[C@H](CCCN)NC(=O)[C@H](Cc1ccc(O)cc1)NC(=O)[C@@H](NC(=O)[C@@H]1CCCN1C(=O)[C@H](CCCNC(=N)N)NC(=O)[C@H](CCCN)NC(=O)[C@H](Cc1c[nH]c2ccccc12)NC(=O)[C@H](CCCN)NC(=O)[C@H](Cc1c[nH]c2ccccc12)NC(=O)[C@H](CCCN)NC(=O)[C@H](Cc1c[nH]c2ccccc12)NC(=O)[C@H](CCCN)N=C(N(C)C)N(C)C)C(C)C)C(=O)O` [Api794, gu-O(WO)3RPVYOPRPRPPHPRL-OH] ({Orn(α-tetramethylguanidino)}-W[Orn]W[Orn]W[Orn]RPVY[Orn]PRPRPPHPRL-OH) registered a Hemolytic grade of 1.7 ± 0.2%. Moreover, the “higher uptake compared with Api795” value in the data set with HeLa cells was found to be 50%.

As to `CC[C@H](C)[C@H](NC(=O)[C@H](CCCN)N=C(N(C)C)N(C)C)C(=O)N[C@@H](CCCN)C(=O)N[C@H](C(=O)N[C@@H](CCCN)C(=O)N[C@@H](CCCNC(=N)N)C(=O)N1CCC[C@H]1C(=O)N[C@H](C(=O)N[C@@H](Cc1ccc(O)cc1)C(=O)N[C@@H](CCCN)C(=O)N1CCC[C@H]1C(=O)N[C@@H](CCCNC(=N)N)C(=O)N1CCC[C@H]1C(=O)N[C@@H](CCCNC(=N)N)C(=O)N1CCC[C@H]1C(=O)N1CCC[C@H]1C(=O)N[C@@H](Cc1c[nH]cn1)C(=O)N1CCC[C@H]1C(=O)N[C@@H](CCCNC(=N)N)C(=O)N[C@@H](CC(C)C)C(=O)O)C(C)C)[C@@H](C)CC` [Api795, gu-O(IO)2RPVYOPRPRPPHPRL-OH] ({Orn(α-tetramethylguanidino)}-I[Orn]I[Orn]RPVY[Orn]PRPRPPHPRL-OH), the viability at 24 h, 0.6 g/L in “in vitro” amounted to 78 ± 14%.

Source of the values: publication PMC4861708 (Frontiers in Cell and Developmental Biology, 2016).
